In patent publication EP0073505B1, “Benzo-heterocycles” (priority 1981, dated 1983):

Test system: Meerschweinchen
Test: Heart rate increase in the guinea pig, i.v.
Assay type: in vivo
Settings: selectivity Broncholyse vs. Herzfrequenzsteigerung
Excerpt: Für die pharmakologischen Prüfungen werden die üblichen Testmethoden und Versuchstiere oder Organe verwendet. Pharmakologisch sind die erfindungsgemässen Verbindungen gegenüber Handelsprodukten der gleichen Indikation zum Teil sehr deutlich unterschieden. Neben einer guten Wirkungsdauer zeigt sich z.B. eine besonders deutliche Selektivität im Verhältnis Broncholyse zu Herzfrequenzsteigerung. So ist z. […] Günstig sind im allgemeinen auch die Resorptionsverhältnisse. So ist der Resorptionsquotient [formula] z.B. für die Verbindung 7 der Tabelle 3 nur 1,1, so dass die orale Wirkung praktisch ebenso gross ist wie die intravenöse. Die LD50-Werte liegen, z.B. an der Maus, so weit über der therapeutischen Dosis, dass eine günstige therapeutische Breite gegeben ist.

Structure (SMILES): CC[C@H](NC(C)C)[C@H](O)c1ccc(O)c2c1OCC(=O)N2 (relative stereo) [Beispiel 1]
- ED50 i.v. der Herzfrequenzsteigerung relative to ED50 i.v. der Broncholyse: mehr als zehnmal so gross
